{
  "source": "patent US20250250582A1",
  "about": "“Plant Cells and Plants Modified to Increase Herbicide Resistance and Stress Tolerance and Methods of Using the Same” (The Board of Trustees of the University of Arkansas, priority 2018, published 2025)",
  "key": {"[1]": {"system": "susceptible E. colona (ECO-S)", "assay": "RNA-sequencing differential gene expression, herbicide-treated vs nontreated ECO-S", "conditions": "ECO-S-T vs ECO-S-N, 24 h", "text": "(§1) Pure-line generated seed of each accession were germinated in pots containing potting soil within a temperature/light controlled growth chamber set to a 14-hr day length, 33 C day temperature, and 24 C night time to simulate environmental conditions early in the rice growing season. A single plant was maintained in each of the pots and used for the treatments; two pots were used as individual biological replicates. […] Pots for each of the respective treatments were labeled as either ECO-R/S-T for the treated samples and ECO-R/S-N for the non-treated counterpart. To minimize the effect that the sprayer may play in the application, both plants of the ECO-R and ECO-S were treated at the same time. After approximately 30 minutes, allowing for the plants to dry, the treated and non-treated plants of both accessions were moved back into the growth chamber. Precisely 24-hours after application, the aboveground portion of each of the plants were removed and immediately frozen in liquid nitrogen to cease all biological function. Samples were then transferred to RNAlater™-ICE (Invitrogen, Carlsbad CA, USA) for shipment to the Clemson University Genomics Institute (CUGI), in Clemson, South Carolina.\n(§2) RNA was extracted from the young leaf tissues of both replications for the ECO-R and ECO-S, T and N samples, at Clemson University. Total RNA was extracted with a kit according to the manufactures instructions. The extracted RNA was treated with DNase (Invitrogen, Calsbad, CA, USA) to remove any DNA contamination prior to further processing. The samples were prepared for sequencing by CUGI. For library preparation, the TruSeq Stranded Total RNA kit (Illumina Inc., San Diego, CA, USA) was used according to the instructions provided by the manufacturer to produce a paired-end library for sequencing. Ribosomal RNA was removed using target-specific oligonucleotides paired with rRNA removal beads, removing all cytoplasmic and mitochondrial rRNA that may result in poor quality results. RNA was fragmented and reverse transcribed to cDNA using random primers, followed by a second strand cDNA synthesis. Each fragment is then ligated with an additional ‘A’ and an adapter for sequencing. The PCR enriched product is then used to create the final cDNA library. All samples were sequenced on an Illumina Hiseq 2500 platform housed in the Holdings Cancer Center at the Medical University of South Carolina, Charleston, SC, USA. Samples, regardless of treatments or replication were ran across three lanes to reduce sequencing errors from the equipment. The resulting data were processed by CUGI.\n(§3) A de novo transcriptome was assembled from the treatments described for this experiment as well as several treatments, which included herbicides profiled in ECO-R. The treatments were applied to both ECO-R and ECO-S samples with two replications as described previously. In total, 20 individual plants, from both the ECO-R and ECO-S accessions, as well as T and NT samples, were used for the assembly. The transcriptome was assembled using the Trinity RNA-Seq pipeline (Broad Institute, Cambridge, MA, USA). Raw data were assessed for quality using FastQC (Babraham Institute, Cambridge, UK) and then processed to remove adapter sequences and low quality bases using a sliding window method. The processed data were then rerun using FastQC to ensure high quality reads. Using the TrinityRNASeq 2.2.0 software, the samples were normalized, by replication, using a coverage size of 100 and kmer of 32. The normalized reads were then assembled as transcripts and genes using Trinity with the stranded library set as the default."}, "[2]": {"system": "susceptible E. colona standard", "assay": "Determination of resistance level (visual injury), susceptible plants", "conditions": "2 X dose, visual 3 wk after treatment"}, "[3]": {"system": "ECO-R compared to ECO-S after herbicide treatment", "assay": "RNA-sequencing differential gene expression, ECO-R-T compared to ECO-S-T", "text": "as §1, §2, §3"}, "[4]": {"system": "resistant Echinochloa species", "assay": "Determination of resistance level (visual injury), resistant accessions", "type": "in vivo, E. colona and E. crus-galli", "conditions": "visual 3 wk after treatment", "text": "The experiment was repeated once."}},
  "note": "Where “and” joins values, the source holds several entries; their conditions need not be identical. Equal values may be shown once.",
  "data": [
    {"compound": "CCC(=O)Nc1ccc(Cl)c(Cl)c1", "note": "[propanil]", "values": [
      {"measurement": "ABC transporter G family member 5 Fold Change", "setting": "[1]", "result": 2.8, "unit": "fold"},
      {"measurement": "ABC transporter G family member 42 Fold Change", "setting": "[1]", "result": 1.5, "unit": "fold"},
      {"measurement": "ACC synthase fold change", "setting": "[1]", "result": "−2.7", "unit": "fold"},
      {"measurement": "CYP71A1 Fold Change", "setting": "[1]", "result": 2.9, "unit": "fold"},
      {"measurement": "CYP71A21 Fold Change", "setting": "[1]", "result": 5.1, "unit": "fold"},
      {"measurement": "CYP71D7 Fold Change", "setting": "[1]", "result": 5.9, "unit": "fold"},
      {"measurement": "CYP94C1 Fold Change", "setting": "[1]", "result": "3.7 fold and 5.4 fold and 5.5 fold"},
      {"measurement": "CYP716B1 Fold Change", "setting": "[1]", "result": 3.0, "unit": "fold"},
      {"measurement": "GSTU1 Fold Change", "setting": "[1]", "result": "2.5 fold and 2.7 fold"},
      {"measurement": "GSTU6 Fold Change", "setting": "[1]", "result": "2.3 fold and 4.1 fold"},
      {"measurement": "Heparan-alpha-glucosaminide N-acetyltransferase Fold Change", "setting": "[1]", "result": 2.5, "unit": "fold"},
      {"measurement": "MSR-1 Fold Change", "setting": "[1]", "result": 2.1, "unit": "fold"},
      {"measurement": "MYB44 fold change", "setting": "[1]", "result": "> 3", "unit": "fold"},
      {"measurement": "MYC3 fold change", "setting": "[1]", "result": 3.4, "unit": "fold"},
      {"measurement": "Probable glutathione S-transferase Fold Change", "setting": "[1]", "result": 1.8, "unit": "fold"},
      {"measurement": "RGA2 fold change", "setting": "[1]", "result": "> 7.5", "unit": "fold"},
      {"measurement": "RGA3 fold change", "setting": "[1]", "result": 1.7, "unit": "fold"},
      {"measurement": "UGT73B4 Fold Change", "setting": "[1]", "result": "3.8 fold and 5.7 fold"},
      {"measurement": "UGT73C1 Fold Change", "setting": "[1]", "result": 3.1, "unit": "fold"},
      {"measurement": "UGT73C2 Fold Change", "setting": "[1]", "result": 3.3, "unit": "fold"},
      {"measurement": "UGT74D1 Fold Change", "setting": "[1]", "result": 2.2, "unit": "fold"},
      {"measurement": "UGT75C1 Fold Change", "setting": "[1]", "result": 2.9, "unit": "fold"},
      {"measurement": "Uncharacterized acetyltransferase At3g50280 Fold Change", "setting": "[1]", "result": "2.5 fold and 3.5 fold"},
      {"measurement": "multiple ACC oxidase genes fold change", "setting": "[1]", "result": "−1.8 to −2.2", "unit": "fold"},
      {"measurement": "phosphoenolypyruvate carboxylase fold change", "setting": "[1]", "result": "−2.1 to −3.4", "unit": "fold"},
      {"measurement": "pyruvate dehydrogenase fold change", "setting": "[1]", "result": "−5.6 to −6.2", "unit": "fold"},
      {"measurement": "sugar transporter ERD6-like 6 fold change", "setting": "[1]", "result": 2.3, "unit": "fold"},
      {"measurement": "DNA and RNA polymerase-related transcripts fold change", "setting": "[1]; repressed by as much as", "result": "≤ −8.7", "unit": "fold"},
      {"measurement": "ACCase and ACCase 2 fold change", "setting": "[1]; repressed up to", "result": "up to −6.9 fold"},
      {"measurement": "susceptible plants killed", "setting": "[2]", "result": 100, "unit": "%"},
      {"measurement": "ABA 8′-hydroxylase 1 transcripts fold change", "setting": "[3]; ECO-R-T vs ECO-S-T, 24 h", "result": "< −6.5", "unit": "fold"},
      {"measurement": "ABA receptor PYL5 fold change", "setting": "[3]; ECO-R-T vs ECO-S-T, 24 h", "result": "−4.8", "unit": "fold"},
      {"measurement": "ABA receptor PYL8 fold change", "setting": "[3]; ECO-R-T vs ECO-S-T, 24 h", "result": "−3.7", "unit": "fold"},
      {"measurement": "ACC synthase fold change", "setting": "[3]; ECO-R-T vs ECO-S-T, 24 h", "result": 8.6, "unit": "fold"},
      {"measurement": "Beta-glucosidase 22 fold change", "setting": "[3]; ECO-R-T vs ECO-S-T, 24 h", "result": 5.9, "unit": "fold"},
      {"measurement": "CYP71A1 Fold Change", "setting": "[3]; ECO-R-T vs ECO-S-T, 24 h", "result": 3.6, "unit": "fold"},
      {"measurement": "CYP72A15 Fold Change", "setting": "[3]; ECO-R-T vs ECO-S-T, 24 h", "result": "6.6 fold and 11.3 fold"},
      {"measurement": "DNA-directed RNA polymerase 1 subunit RPA112 III fold change", "setting": "[3]; ECO-R-T vs ECO-S-T, 24 h", "result": 10.3, "unit": "fold"},
      {"measurement": "ERF4 fold change", "setting": "[3]; ECO-R-T vs ECO-S-T, 24 h", "result": 4.3, "unit": "fold"},
      {"measurement": "ERF7 fold change", "setting": "[3]; ECO-R-T vs ECO-S-T, 24 h", "result": 8, "unit": "fold"},
      {"measurement": "ERF11 fold change", "setting": "[3]; ECO-R-T vs ECO-S-T, 24 h", "result": 3.4, "unit": "fold"},
      {"measurement": "GST1 fold change", "setting": "[3]; ECO-R-T vs ECO-S-T, 24 h", "result": 3.9, "unit": "fold"},
      {"measurement": "GST4 fold change", "setting": "[3]; ECO-R-T vs ECO-S-T, 24 h", "result": "> 5.3", "unit": "fold"},
      {"measurement": "GSTU17 fold change", "setting": "[3]; ECO-R-T vs ECO-S-T, 24 h", "result": 10.9, "unit": "fold"},
      {"measurement": "UGT73D1 fold change", "setting": "[3]; ECO-R-T vs ECO-S-T, 24 h", "result": 7.3, "unit": "fold"},
      {"measurement": "UGT88A1 Fold Change", "setting": "[3]; ECO-R-T vs ECO-S-T, 24 h", "result": 3.2, "unit": "fold"},
      {"measurement": "UGT88F3 fold change", "setting": "[3]; ECO-R-T vs ECO-S-T, 24 h", "result": 5.9, "unit": "fold"},
      {"measurement": "ferredoxin-6 fold change", "setting": "[3]; ECO-R-T vs ECO-S-T, 24 h", "result": "−6.5", "unit": "fold"},
      {"measurement": "nitrate reductase fold change", "setting": "[3]; ECO-R-T vs ECO-S-T, 24 h", "result": "< −6", "unit": "fold"},
      {"measurement": "nitrate transporters fold change", "setting": "[3]; ECO-R-T vs ECO-S-T, 24 h", "result": "< −4", "unit": "fold"},
      {"measurement": "polymerase III subunit 2 fold change", "setting": "[3]; ECO-R-T vs ECO-S-T, 24 h", "result": 10.8, "unit": "fold"},
      {"measurement": "trehalose biosynthesis enzymes fold change", "setting": "[3]; ECO-R-T vs ECO-S-T, 24 h", "result": "< −3", "unit": "fold"},
      {"measurement": "Phosphoenolpyruvate carboxylase (PEPc) kinase 1 fold change", "setting": "[3]; in vivo", "result": "> 5", "unit": "fold"},
      {"measurement": "injury of ECO187", "setting": "[4]; 2 X dose (4480 g ai/ha)", "result": 97, "unit": "%"},
      {"measurement": "injury of resistant Echinochloa species", "setting": "[4]; 2 X dose, propanil range excludes ECO187", "result": "27-57%"}
    ]}
  ]
}
